Test results reported in patent US10112926B2 (priority 2014, dated 2018).
pIC50: −log10 of the molar value. Counter-ions that a name gives are not always drawn.

Experiments:
PI 4-kinase beta = PI 4-kinase beta (Homo sapiens (Human), UniProt Q9UBF8); conditions: read-out: Assay D PI4Kβ IC50
Vps34 = Vps34 (Homo sapiens (Human), UniProt Q8NEB9); conditions: read-out: Assay C VPS34 IC50
PI 3-kinase beta = PI 3-kinase beta (Homo sapiens (Human), UniProt P42338); conditions: read-out: Assay B PI3Kβ IC50
PI 3-kinase alpha = PI 3-kinase alpha (Homo sapiens (Human), UniProt P42336); conditions: read-out: Assay A PI3Kα IC50
mTOR = mTOR (Homo sapiens (Human), UniProt P42345); conditions: read-out: Assay G mTOR IC50

Chain of PI 4-kinase beta (Q9UBF8 whole entry): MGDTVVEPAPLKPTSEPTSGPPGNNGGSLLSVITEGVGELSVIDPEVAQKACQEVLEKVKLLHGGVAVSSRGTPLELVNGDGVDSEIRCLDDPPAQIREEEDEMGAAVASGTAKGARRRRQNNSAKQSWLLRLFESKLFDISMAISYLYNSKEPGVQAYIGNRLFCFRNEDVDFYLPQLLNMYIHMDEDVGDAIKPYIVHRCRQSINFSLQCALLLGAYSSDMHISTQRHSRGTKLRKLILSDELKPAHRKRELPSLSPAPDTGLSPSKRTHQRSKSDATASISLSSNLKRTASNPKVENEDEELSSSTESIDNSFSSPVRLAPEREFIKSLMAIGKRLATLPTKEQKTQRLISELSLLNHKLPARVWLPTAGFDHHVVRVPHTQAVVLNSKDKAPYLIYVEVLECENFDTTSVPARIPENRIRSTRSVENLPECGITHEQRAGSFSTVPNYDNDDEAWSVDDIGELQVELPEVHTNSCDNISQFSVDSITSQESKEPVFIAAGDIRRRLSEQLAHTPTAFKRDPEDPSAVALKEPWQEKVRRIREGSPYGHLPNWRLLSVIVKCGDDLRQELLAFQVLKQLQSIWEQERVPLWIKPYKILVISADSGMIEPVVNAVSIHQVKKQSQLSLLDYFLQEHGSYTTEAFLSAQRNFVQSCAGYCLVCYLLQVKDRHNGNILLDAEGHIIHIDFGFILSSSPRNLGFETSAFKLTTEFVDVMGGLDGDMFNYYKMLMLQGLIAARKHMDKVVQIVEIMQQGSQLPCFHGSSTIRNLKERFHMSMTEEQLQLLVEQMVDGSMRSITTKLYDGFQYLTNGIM
Chain of PI 3-kinase alpha (P42336 whole entry, looked up): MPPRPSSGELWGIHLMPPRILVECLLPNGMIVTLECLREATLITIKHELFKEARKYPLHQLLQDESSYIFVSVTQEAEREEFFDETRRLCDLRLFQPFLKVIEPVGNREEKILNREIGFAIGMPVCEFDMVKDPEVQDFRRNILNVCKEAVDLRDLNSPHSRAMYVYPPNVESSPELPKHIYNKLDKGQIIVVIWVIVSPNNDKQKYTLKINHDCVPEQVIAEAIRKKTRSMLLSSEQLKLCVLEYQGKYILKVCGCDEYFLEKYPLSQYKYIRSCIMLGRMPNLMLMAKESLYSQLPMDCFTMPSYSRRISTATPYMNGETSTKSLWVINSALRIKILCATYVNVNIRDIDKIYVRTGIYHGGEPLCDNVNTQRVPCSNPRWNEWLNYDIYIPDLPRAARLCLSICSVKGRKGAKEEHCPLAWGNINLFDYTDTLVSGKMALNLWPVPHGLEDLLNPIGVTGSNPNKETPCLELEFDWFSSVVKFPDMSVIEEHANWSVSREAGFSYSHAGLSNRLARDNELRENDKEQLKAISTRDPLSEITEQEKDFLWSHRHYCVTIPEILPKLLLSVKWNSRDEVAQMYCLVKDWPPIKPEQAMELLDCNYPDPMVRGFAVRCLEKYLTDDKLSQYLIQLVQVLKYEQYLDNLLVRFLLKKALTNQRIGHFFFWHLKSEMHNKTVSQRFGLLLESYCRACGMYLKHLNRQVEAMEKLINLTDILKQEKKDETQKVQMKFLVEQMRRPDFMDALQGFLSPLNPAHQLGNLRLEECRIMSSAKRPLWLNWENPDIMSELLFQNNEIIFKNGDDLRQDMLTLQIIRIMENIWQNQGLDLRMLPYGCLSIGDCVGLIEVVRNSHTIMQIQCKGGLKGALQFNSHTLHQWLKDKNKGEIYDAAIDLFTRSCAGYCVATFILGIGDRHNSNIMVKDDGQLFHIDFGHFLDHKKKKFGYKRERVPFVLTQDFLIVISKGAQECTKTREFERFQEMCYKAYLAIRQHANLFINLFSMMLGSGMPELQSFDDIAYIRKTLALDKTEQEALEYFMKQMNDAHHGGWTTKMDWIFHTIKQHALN
Chain of PI 3-kinase alpha (P27986 whole entry partner, looked up): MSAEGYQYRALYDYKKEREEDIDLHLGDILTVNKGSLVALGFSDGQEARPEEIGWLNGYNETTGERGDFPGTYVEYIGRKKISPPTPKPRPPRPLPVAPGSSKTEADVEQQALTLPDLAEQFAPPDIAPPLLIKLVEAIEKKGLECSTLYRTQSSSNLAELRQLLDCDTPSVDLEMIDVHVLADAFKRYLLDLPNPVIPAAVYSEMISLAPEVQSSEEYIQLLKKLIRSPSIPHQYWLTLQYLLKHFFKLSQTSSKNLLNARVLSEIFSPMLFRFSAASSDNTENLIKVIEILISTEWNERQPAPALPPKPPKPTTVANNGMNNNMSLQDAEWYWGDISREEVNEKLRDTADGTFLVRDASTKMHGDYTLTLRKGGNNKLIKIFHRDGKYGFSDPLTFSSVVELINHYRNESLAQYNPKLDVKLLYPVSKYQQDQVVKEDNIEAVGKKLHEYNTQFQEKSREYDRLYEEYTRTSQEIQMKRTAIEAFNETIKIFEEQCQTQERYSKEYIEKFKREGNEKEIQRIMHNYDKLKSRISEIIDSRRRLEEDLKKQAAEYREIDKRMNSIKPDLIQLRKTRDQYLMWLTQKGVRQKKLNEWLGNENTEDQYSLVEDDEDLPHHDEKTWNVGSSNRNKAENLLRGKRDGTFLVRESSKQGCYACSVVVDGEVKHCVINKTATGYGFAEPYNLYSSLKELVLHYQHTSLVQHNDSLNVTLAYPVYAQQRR
Chain of PI 3-kinase beta (P42338 whole entry, looked up): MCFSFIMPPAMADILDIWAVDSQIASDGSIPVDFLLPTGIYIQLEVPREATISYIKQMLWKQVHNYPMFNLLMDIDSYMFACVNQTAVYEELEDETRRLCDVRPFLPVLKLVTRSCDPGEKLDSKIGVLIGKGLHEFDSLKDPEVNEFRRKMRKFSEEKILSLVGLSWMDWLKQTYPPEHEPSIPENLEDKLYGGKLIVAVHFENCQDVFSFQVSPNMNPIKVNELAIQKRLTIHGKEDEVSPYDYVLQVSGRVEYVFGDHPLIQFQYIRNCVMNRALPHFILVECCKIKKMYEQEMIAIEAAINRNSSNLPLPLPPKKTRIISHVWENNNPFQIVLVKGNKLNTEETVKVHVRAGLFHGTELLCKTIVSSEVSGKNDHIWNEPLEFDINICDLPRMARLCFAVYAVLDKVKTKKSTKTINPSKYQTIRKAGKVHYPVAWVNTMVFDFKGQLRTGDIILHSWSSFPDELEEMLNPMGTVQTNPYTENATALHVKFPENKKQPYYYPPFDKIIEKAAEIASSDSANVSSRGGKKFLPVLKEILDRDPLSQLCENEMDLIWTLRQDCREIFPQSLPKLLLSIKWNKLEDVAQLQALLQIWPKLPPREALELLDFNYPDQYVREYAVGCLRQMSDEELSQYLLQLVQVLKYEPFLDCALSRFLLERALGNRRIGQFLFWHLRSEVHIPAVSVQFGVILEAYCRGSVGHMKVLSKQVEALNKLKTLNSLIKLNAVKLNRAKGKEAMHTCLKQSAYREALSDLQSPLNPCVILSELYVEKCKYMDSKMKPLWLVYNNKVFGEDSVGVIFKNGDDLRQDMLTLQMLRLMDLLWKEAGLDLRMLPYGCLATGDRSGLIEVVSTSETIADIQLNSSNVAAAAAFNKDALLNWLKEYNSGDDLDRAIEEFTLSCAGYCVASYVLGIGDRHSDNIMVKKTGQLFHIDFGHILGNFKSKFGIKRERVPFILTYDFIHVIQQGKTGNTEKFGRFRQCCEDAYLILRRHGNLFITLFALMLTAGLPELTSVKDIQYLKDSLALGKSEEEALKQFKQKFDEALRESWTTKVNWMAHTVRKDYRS
Chain of PI 3-kinase beta (P27986 whole entry partner, looked up): as the sequence (P27986 whole entry partner, looked up) above
Chain of Vps34 (Q8NEB9 whole entry): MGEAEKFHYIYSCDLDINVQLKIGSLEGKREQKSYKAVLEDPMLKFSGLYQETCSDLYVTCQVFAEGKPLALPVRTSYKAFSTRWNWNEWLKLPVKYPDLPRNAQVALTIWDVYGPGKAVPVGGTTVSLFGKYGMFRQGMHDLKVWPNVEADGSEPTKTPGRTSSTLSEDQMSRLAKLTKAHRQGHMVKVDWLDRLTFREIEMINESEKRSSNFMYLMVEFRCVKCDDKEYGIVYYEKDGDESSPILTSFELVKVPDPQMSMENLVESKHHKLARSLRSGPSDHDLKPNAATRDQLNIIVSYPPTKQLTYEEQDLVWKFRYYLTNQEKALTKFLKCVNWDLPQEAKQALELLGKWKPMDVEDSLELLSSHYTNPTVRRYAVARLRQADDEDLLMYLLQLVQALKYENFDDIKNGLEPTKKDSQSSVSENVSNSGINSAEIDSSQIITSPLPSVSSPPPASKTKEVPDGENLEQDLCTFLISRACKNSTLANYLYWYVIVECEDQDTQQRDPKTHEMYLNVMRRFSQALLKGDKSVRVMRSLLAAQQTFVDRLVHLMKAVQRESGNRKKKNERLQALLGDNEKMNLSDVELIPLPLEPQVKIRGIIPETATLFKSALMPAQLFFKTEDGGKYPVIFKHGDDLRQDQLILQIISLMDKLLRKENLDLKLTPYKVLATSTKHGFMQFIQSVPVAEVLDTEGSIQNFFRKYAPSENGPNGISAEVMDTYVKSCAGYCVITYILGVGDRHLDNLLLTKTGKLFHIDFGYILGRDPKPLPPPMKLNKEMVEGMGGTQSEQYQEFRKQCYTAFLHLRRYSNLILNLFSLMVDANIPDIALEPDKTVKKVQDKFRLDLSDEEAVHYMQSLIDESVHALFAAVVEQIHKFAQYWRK

| Structure (SMILES) | pIC50 (PI 4-kinase beta) | pIC50 (Vps34) | pIC50 (PI 3-kinase beta) | pIC50 (PI 3-kinase alpha) | pIC50 (mTOR) |
| --- | --- | --- | --- | --- | --- |
| Cc1cc(-c2cc(-c3cc(S(=O)(=O)NC[C@@H]4CCCO4)ccc3C)cnc2N)on1 [Example 40, (S)-3-(6-Amino-5-(3-methylisoxazol-5-yl)pyridin-3-yl)-4-methyl-N-((tetrahydrofuran-2-yl)methyl)benzenesulfonamide] | 5.49 | < 5.00 | 5.40 | – | – |
| Cc1ncc(-c2cc(-c3cc(S(=O)(=O)NCC4CCCOC4)ccc3C)cnc2N)o1 (stereo not shown) [Example 104.8, 3-(6-amino-5-(2-methyloxazol-5-yl)pyridin-3-yl)-4-methyl-N-((tetrahydro-2H-pyran-3-yl)methyl)benzenesulfon-amide] | 5.70 | 5.32 | 6.10 | – | – |
| Cc1noc(-c2cc(-c3cc(S(=O)(=O)NCC(C)(C)O)c(C)cc3F)cnc2N)n1 [Example 113, 5-(6-amino-5-(3-methyl-1,2,4-oxadiazol-5-yl)pyridin-3-yl)-4-fluoro-N-(2-hydroxy-2-methylpropyl)-2-methylbenzenesulfonamide] | – | < 5.00 | 5.05 | 5.94 | – |
| Cc1cc(-c2cc(-c3cc(S(=O)(=O)N[C@H]4CC[C@H](O)CC4)ccc3C)cnc2N)on1 [Example 5.4, trans 3-(6-Amino-5-(3-methylisoxazol-5-yl)pyridin-3-yl)-N-(-4-hydroxycyclohexyl)-4-methylbenzenesulfon-amide hydrochloride] | – | < 5.00 | – | 6.60 | – |
| Cc1cnn(-c2cc(-c3cc(S(=O)(=O)NCC(C)(C)O)ccc3C)cnc2N)c1 [Example 60, 3-(6-Amino-5-(4-methyl-1H-pyrazol-1-yl)pyridin-3-yl)-N-(2-hydroxy-2-methylpropyl)-4-methylbenzenesulfonamide] | – | < 5.00 | < 5.00 | – | < 5.00 |
| Cc1cc(-c2cc(-c3cc(S(=O)(=O)NCC(F)(F)F)ccc3C)cnc2N)on1 [Example 39, 3-(6-Amino-5-(3-methylisoxazol-5-yl)pyridin-3-yl)-4-methyl-N-(2,2,2-trifluoroethyl)benzenesulfonamide] | 5.89 | < 5.00 | 5.43 | 6.35 | – |
| Cc1ncc(-c2cc(-c3cc(S(=O)(=O)NCC(C)(C)CO)ccc3C)cnc2N)s1 [Example 83.4, 3-(6-Amino-5-(2-methylthiazol-5-yl)pyridin-3-yl)-N-(3-hydroxy-2,2-dimethylpropyl)-4-methylbenzenesulfonamide] | 5.89 | 5.66 | 5.68 | 6.46 | – |
| Cc1noc(-c2cc(-c3cc(S(=O)(=O)NCC4CCOC4)ccc3C)cnc2N)n1 (stereo not shown) [Example 29, 3-(6-Amino-5-(3-methyl-1,2,4-oxadiazol-5-yl)pyridin-3-yl)-4-methyl-N-((tetrahydrofuran-3-yl)methyl)benzenesulfonamide] | 5.00 | < 5.00 | – | – | < 5.00 |
| CCCONS(=O)(=O)c1ccc(C)c(-c2cnc(N)c(-c3nc(C)no3)c2)c1 [Example 44, 3-(6-Amino-5-(3-methyl-1,2,4-oxadiazol-5-yl)pyridin-3-yl)-4-methyl-N-propoxybenzenesulfonamide] | 5.45 | < 5.00 | – | – | < 5.00 |
| Cc1noc(-c2cc(-c3cc(S(=O)(=O)NCC4(CO)CCC4)ccc3C)cnc2N)n1 [Example 37.26, 3-(6-Amino-5-(3-methyl-1,2,4-oxadiazol-5-yl)pyridin-3-yl)-N-((1-(hydroxymethyl)cyclobutyl)methyl)-4-methylbenzenesulfonamide] | < 5.00 | < 5.00 | – | – | < 5.00 |
| Cc1ccc(S(=O)(=O)NCCC(C)(C)O)cc1-c1cnc(N)c(-c2cnn(C)c2)c1 [Example 2, 3-(6-Amino-5-(1-methyl-1H-pyrazol-4-yl)pyridin-3-yl)-N-(3-hydroxy-3-methylbutyl)-4-methylbenzenesulfonamide] | 5.27 | < 5.04 | – | – | < 5.04 |
| Cc1noc(-c2cc(-c3cc(S(=O)(=O)NOC(C)C)ccc3C)cnc2N)n1 [Example 45, 3-(6-Amino-5-(3-methyl-1,2,4-oxadiazol-5-yl)pyridin-3-yl)-N-isopropoxy-4-methylbenzenesulfonamide] | 5.13 | < 5.00 | – | – | 5.04 |
| Cc1noc(-c2cc(-c3cc(S(=O)(=O)NOCC(C)(C)O)ccc3C)cnc2N)n1 [Example 11, 3-[6-Amino-5-(3-methyl-[1,2,4]oxadiazol-5-yl)-pyridin-3-yl]-N-(2-hydroxy-2-methyl-propoxy)-4-methyl-benzenesulfonamide, hydrochloride salt] | 5.29 | < 5.00 | – | – | < 5.00 |
| Cc1cc(-c2cc(-c3cc(S(=O)(=O)NC[C@H]4CCOC4)ccc3C)cnc2N)on1 [Example 4.7, (R)-3-(6-Amino-5-(3-methylisoxazol-5-yl)pyridin-3-yl)-4-methyl-N-((tetra hydrofuran-3-yl)methyl)benzene-sulfonamide hydrochloride] | 5.77 | < 5.00 | – | – | 5.11 |
| Cc1noc(-c2cc(-c3cc(S(=O)(=O)N[C@H]4CC[C@H](O)CC4)ccc3C)cnc2N)n1 [Example 12, trans 3-[6-Amino-5-(3-methyl-[1,2,4]oxadiazol-5-yl)-pyridin-3-yl]-N-(4-hydroxy-cyclohexyl)-4-methyl-benzenesulfonamide, hydrochloride salt] | 5.28 | < 5.00 | – | – | < 5.00 |
| Cc1noc(-c2cc(-c3cc(S(=O)(=O)NCCC(F)(F)F)ccc3C)cnc2N)n1 [Example 48, 3-(6-Amino-5-(3-methyl-1,2,4-oxadiazol-5-yl)pyridin-3-yl)-4-methyl-N-(3,3,3-trifluoropropyl)benzenesulfonamide] | 5.22 | < 5.00 | – | – | < 5.00 |
| Cc1ccc(S(=O)(=O)NCCC(C)(C)O)cc1-c1cnc(N)c(-c2cnn(C)n2)c1 [Example 106, 3-(6-amino-5-(2-methyl-2H-1,2,3-triazol-4-yl)pyridin-3-yl)-N-(3-hydroxy-3-methylbutyl)-4-methylbenzenesulfonamide] | 5.19 | < 5.00 | – | – | 5.12 |
| Cc1noc(-c2cc(-c3cc(S(=O)(=O)NCC4(C)COC4)ccc3C)cnc2N)n1 [Example 4.9, 3-(6-Amino-5-(3-methyl-1,2,4-oxadiazol-5-yl)pyridin-3-yl)-4-methyl-N-((3-methyloxetan-3-yl)methyl)benzene-sulfonamide] | < 5.00 | < 5.00 | – | – | < 5.00 |
| Cc1cnc(-c2cc(-c3cc(S(=O)(=O)N[C@H]4CC[C@H](O)CC4)ccc3C)cnc2N)o1 [Example 5.2, trans 3-(6-Amino-5-(5-methyloxazol-2-yl)pyridin-3-yl)-N-(4-hydroxycyclohexyl)-4-methylbenzene sulfonamide hydrochloride] | 6.05 | < 5.00 | – | – | < 5.00 |
| Cc1cc(-c2cc(-c3cc(S(=O)(=O)N4CC(C)(O)C4)ccc3C)cnc2N)on1 [Example 37.28, 1-((3-(6-Amino-5-(3-methylisoxazol-5-yl)pyridin-3-yl)-4-methylphenyl)sulfonyl)-3-methylazetidin-3-ol] | 5.55 | < 5.00 | 5.42 | – | – |
| Cc1noc(-c2cc(-c3cc(S(=O)(=O)N4CC(CO)C4)ccc3C)cnc2N)n1 [Example 37.39, (S)-((3-(6-Amino-5-(3-methyl-1,2,4-oxadiazol-5-yl)pyridin-3-yl)-4-methylphenyl)sulfonyl)azetidin-3-yl)methanol] | 5.32 | < 5.00 | – | – | < 5.00 |
| Cc1ncc(-c2cc(-c3cc(S(=O)(=O)NCC4(O)CC4)ccc3C)cnc2N)o1 [Example 114.1, 3-(6-amino-5-(2-methyloxazol-5-yl)pyridin-3-yl)-N-((1-hydroxycyclopropyl)methyl)-4-methylbenzenesulfon-amide] | 5.35 | 5.47 | – | 6.60 | – |
| Cc1ccc(S(=O)(=O)NCCC(C)(C)O)cc1-c1cnc(N)c(-c2ccncc2)c1 [Example 18, 3-(2-Amino-[3,4′]bipyridinyl-5-yl)-N-(3-hydroxy-3-methyl-butyl)-4-methyl-benzenesulfonamide] | < 5.04 | < 5.04 | – | – | < 5.04 |
| Cc1noc(-c2cc(-c3cc(S(=O)(=O)N[C@H]4CC[C@H](CO)CC4)ccc3C)cnc2N)n1 [Example 19, trans 3-[6-Amino-5-(3-methyl-[1,2,4]oxadiazol-5-yl)-pyridin-3-yl]-N-(4-hydroxymethyl-cyclohexyl)-4-methyl-benzenesulfonamide hydrochloride] | 5.89 | < 5.00 | – | – | < 5.00 |
| Cc1ccc(S(=O)(=O)N[C@H]2CC[C@H](O)CC2)cc1-c1cnc(N)c(-c2cnn(C)n2)c1 [Example 4.5, trans 3-(6-Amino-5-(2-methyl-2H-1,2,3-triazol-4-yl)pyridin-3-yl)-N-(4-hydroxycyclohexyl)-4-methylbenzene sulfonamide hydrochloride] | 5.28 | < 5.00 | – | – | < 5.00 |
| Cc1noc(-c2cc(-c3cc(S(=O)(=O)NCC4(O)CCC4)ccc3C)cnc2N)n1 [Example 37.15, 3-(6-Amino-5-(3-methyl-1,2,4-oxadiazol-5-yl)pyridin-3-yl)-N-((1-hydroxycyclobutyl)methyl)-4-methylbenzenesulfonamide] | 5.27 | < 5.00 | – | – | < 5.00 |
| Cc1ncc(-c2cc(-c3cc(S(=O)(=O)NCCC(C)(C)O)ccc3C)cnc2N)o1 [Example 13, 3-[6-Amino-5-(2-methyl-oxazol-5-yl)-pyridin-3-yl]-N-(3-hydroxy-3-methyl-butyl)-4-methyl-benzenesulfonamide, hydrochloride salt] | 5.36 | < 5.00 | – | – | 5.80 |
